# Laboratory results from patent publication US20260138959A1, “QUINAZOLINE DERIVATIVE COMPOUND AND USE THEREOF” (VORONOI INC., priority 2021, published 2026).
# Experiments:
# [1] = system: c-KIT V560G/D816V; assay: Proliferation inhibitory activity on Ba/F3 cell (CellTiter-Glo, 72 hours), c-KIT V560G/D816V; type: cell-based; settings: Mus musculus, BaF3, c-KIT V560G/D816V cells, read-out: Cell (nM) c-KIT V560G/D816V (GI50 class)
# In short: (§1)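 In this assay, Ba/F3 transfectants are treated for 72 h at 37 °C with serially diluted compound (final 0.00005-10 μM), and viable cells are quantified by CellTiter-Glo. Results are expressed relative to vehicle to give GI50 in nM.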
# [2] = system: Ba/F3-c-KIT(D816V); assay: Proliferation inhibitory activity on Ba/F3 cell (CellTiter-Glo, 72 hours), c-KIT(D816V); type: cell-based; settings: Mus musculus, BaF3, read-out: Ba/F3 (nM) c-KIT (D816V) (GI50 class)
# In short: as §1
# [3] = system: c-KIT D814Y; assay: Proliferation inhibitory activity on Ba/F3 cell (CellTiter-Glo, 72 hours), c-KIT D814Y; type: cell-based; settings: Mus musculus, BaF3, c-KIT D814Y cells, read-out: Cell (nM) c-KIT D814Y (GI50 class)
# Method: (§2) Ba/F3-TEL-PDGFRα(WT), Ba/F3-TEL-PDGFβ(WT), Ba/F3-c-KIT(D816V) (Kyinno, #KC-0138), c-KIT V560G/D816V, c-KIT D814Y were seeded at 3×10^3/100 μl/well in a clear bottom white 96-well plate. A culture solution containing compounds of 12 concentrations (0.00001-2 mM) serially diluted in 3 folds and the DMSO control group was added at 0.5 μl/well each to a final concentration of 0.00005-10 μM, and then incubated in a CO2 incubator at 37° C. for 72 hours. After 72 hours, the plate treated with the compound was taken out, CellTiter-Glo® Assay (Promega) solution was treated with 100 μl/well, followed by mixing well. After mixing well for about 10 minutes at room temperature, […] was measured using a microplate reader. The data were presented as percentages in proportion to treated cells based on the vehicle, GI50 (nM) values were calculated using GraphPad Prism 8.3.0 (GraphPad software Inc., San Diego).
# (§3) The inhibitory activities of Ba/F3 expressing PDGFR-α, PDGFR-β, c-KIT(D816V), c-KIT V560G/D816V, and c-KIT D814Y measured as described above were measured and shown in Table 7 below (A: GI50≤200 nM; B: 200 nM<GI50≤500 nM; C: GI50>500 nM).
# [4] = system: Ba/F3-TEL-PDGFβ(WT); assay: Proliferation inhibitory activity on Ba/F3 cell (CellTiter-Glo, 72 hours), PDGFR-β; type: cell-based; settings: Mus musculus, BaF3, read-out: Ba/F3 (nM) Tel-PDGFRβ (GI50 class)
# In short: as §1
# [5] = molecular target: T1, human PDGFR-β(wt) (Homo sapiens, UniProt P09619); assay: Enzyme inhibitory activity, ADP-Glo kinase assay, PDGFR-β(wt); type: biochemical; settings: read-out: PDGFR-β (IC50 class)
# T1 construct: purchased Signalchem P13-11G
# In short: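 Purified human kinases incubated with ATP and substrate 1–2 h at 25 °C in 40 mM Tris-HCl pH 7.4, 20 mM MgCl2, BSA, DTT, compound over 12 concentrations (10–0.00005645 μM final). ADP formed quantified by ADP-Glo luminescence; IC50 from inhibition versus DMSO control, reported in bins A–D.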
# [6] = system: Ba/F3-TEL-PDGFRα(WT); assay: Proliferation inhibitory activity on Ba/F3 cell (CellTiter-Glo, 72 hours), PDGFR-α; type: cell-based; settings: Mus musculus, BaF3, read-out: Ba/F3 (nM) Tel-PDGFRα (GI50 class)
# Method: as §2, §3
# [7] = molecular target: c-KIT D816V (Homo sapiens, UniProt P10721, D816V); assay: Enzyme inhibitory activity, ADP-Glo kinase assay, c-KIT(D816V); type: biochemical; design: purchased Signalchem C06-12LG; settings: read-out: c-KIT (D816V) (IC50 class)
# Method: (§4) In order to evaluate the inhibitory activity of the compounds synthesized according to the above examples on PDGFR-α(wt), PDGFR-β(wt), c-KIT(wt), and c-KIT(D816V) kinases, the following method was performed. The compounds of examples were reacted with purified human PDGFR-α(wt) (Signalchem #P12-18G) enzyme, human PDGFR-β(wt) (Signalchem #P13-11G) enzyme, human c-KIT(wt) (Signalchem #K06-11BG) enzyme, human c-KIT(D816V) (Signalchem #C06-12LG) enzyme, and the enzyme inhibitory abilities were evaluated by the following method.
# (§5) The reaction buffer was used as a composition of 40 mM Tris-HCl pH7.4, 20 mM MgCl2, 0.5 mg/ml BSA, 50 μM DTT, and the reactions of all the tests were carried out on the reaction buffer. The compound was diluted in 12 steps using a serial dilution method from a 10 mM DMSO stock, and the enzyme activity was measured at a final compound concentration of 10˜0.00005645 μM. During the test, the enzyme activity was confirmed using in vitro ADP-Glo™ kinase assay (Promega) after reacting with the proper concentration of human PDGFR-α(wt) enzyme, human PDGFR-β(wt), human c-KIT(wt) enzyme, and human c-KIT(D816V) enzyme with purified ATP and enzyme substrate at 25° C. for 1˜2 hours. At a ratio of 2:2:1, an enzyme-active reaction solution, an ADP-Glo reaction solution, and an enzyme-active detection solution were reacted to measure the inhibition of the enzyme's activity with luminoscence. Based on the […] of the enzyme activity of the solvent control that was not treated with the compound, the degree of enzyme activity inhibition was calculated according to the treatment concentration of each compound, and the concentration of each compound that inhibits 50% of enzyme activity was determined as IC50 (nM) value and the value was obtained by using GraphPad Prism 8.3.0 (GraphPad software Inc., San Diego) software. (A: IC50≤50 nM; B: 50 nM<IC50≤100 nM; C: 100 nM<IC50≤500 nM; D: IC50>500 nM).
# [8] = molecular target: T2, human PDGFR-α(wt) (Homo sapiens, UniProt P16234); assay: Enzyme inhibitory activity, ADP-Glo kinase assay, PDGFR-α(wt); type: biochemical; settings: read-out: PDGFR-α (IC50 class)
# T2 construct: purchased Signalchem P12-18G
# Method: as §4, §5
# [9] = molecular target: T3, human c-KIT(wt) (Homo sapiens, UniProt P10721); assay: Enzyme inhibitory activity, ADP-Glo kinase assay, c-KIT(wt); type: biochemical; settings: read-out: c-KIT (WT) (IC50 class)
# T3 construct: purchased Signalchem K06-11BG
# Method: as §4, §5
# T2 sequence (P16234 24-1089): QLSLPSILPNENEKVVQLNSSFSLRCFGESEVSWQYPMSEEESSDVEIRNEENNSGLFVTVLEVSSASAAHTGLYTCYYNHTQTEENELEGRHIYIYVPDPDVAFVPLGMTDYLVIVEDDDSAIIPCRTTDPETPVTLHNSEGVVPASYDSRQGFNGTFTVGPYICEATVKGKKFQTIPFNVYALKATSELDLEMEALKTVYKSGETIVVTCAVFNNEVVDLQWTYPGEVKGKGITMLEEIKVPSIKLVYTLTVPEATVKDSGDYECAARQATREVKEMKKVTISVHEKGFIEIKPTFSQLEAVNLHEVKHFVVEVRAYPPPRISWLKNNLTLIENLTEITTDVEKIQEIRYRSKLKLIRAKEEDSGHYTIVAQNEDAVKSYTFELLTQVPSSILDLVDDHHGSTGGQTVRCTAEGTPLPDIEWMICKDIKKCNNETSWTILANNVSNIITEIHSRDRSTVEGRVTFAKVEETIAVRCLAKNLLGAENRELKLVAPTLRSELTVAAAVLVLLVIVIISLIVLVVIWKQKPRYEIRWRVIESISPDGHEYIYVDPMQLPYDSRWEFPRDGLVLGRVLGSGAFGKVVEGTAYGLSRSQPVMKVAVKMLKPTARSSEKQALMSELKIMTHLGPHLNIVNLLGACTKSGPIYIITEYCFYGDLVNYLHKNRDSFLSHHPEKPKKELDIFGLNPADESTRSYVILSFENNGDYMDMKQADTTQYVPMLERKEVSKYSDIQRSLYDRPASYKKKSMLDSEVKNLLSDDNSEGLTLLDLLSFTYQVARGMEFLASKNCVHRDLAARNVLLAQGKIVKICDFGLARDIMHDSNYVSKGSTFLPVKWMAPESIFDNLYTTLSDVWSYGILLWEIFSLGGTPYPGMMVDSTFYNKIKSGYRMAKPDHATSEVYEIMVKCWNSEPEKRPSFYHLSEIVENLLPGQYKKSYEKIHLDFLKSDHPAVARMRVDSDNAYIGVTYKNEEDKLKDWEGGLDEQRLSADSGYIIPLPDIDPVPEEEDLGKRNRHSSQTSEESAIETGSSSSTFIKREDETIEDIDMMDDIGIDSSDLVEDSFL
# T1 sequence (P09619 33-1106): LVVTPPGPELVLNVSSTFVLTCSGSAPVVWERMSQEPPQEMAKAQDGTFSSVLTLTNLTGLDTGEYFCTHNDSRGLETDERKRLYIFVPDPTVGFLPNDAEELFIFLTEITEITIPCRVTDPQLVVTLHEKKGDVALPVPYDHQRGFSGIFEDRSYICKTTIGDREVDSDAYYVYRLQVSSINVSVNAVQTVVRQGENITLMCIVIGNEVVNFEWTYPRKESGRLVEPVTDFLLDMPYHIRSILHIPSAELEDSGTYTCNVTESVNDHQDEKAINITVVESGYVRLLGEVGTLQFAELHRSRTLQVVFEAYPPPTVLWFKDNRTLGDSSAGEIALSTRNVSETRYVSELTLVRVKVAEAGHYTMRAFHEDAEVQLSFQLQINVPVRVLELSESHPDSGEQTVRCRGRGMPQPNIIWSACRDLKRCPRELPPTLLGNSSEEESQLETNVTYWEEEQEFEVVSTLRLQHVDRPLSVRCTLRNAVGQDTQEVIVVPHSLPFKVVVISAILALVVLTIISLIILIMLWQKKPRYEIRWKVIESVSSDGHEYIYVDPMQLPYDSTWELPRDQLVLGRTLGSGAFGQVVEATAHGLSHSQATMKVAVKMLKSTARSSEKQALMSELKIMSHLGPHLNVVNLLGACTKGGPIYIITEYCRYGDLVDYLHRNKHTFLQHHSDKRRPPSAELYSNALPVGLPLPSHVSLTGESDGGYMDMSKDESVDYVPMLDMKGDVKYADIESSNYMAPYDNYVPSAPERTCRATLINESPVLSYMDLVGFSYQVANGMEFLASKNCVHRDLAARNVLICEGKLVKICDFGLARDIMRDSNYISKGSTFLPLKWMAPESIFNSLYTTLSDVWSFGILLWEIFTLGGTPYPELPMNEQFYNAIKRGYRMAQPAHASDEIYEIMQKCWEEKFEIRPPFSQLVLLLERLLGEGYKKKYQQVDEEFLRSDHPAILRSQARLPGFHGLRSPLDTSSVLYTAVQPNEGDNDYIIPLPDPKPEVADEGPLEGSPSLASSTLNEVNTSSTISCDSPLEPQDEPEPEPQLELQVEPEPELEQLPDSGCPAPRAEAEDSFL
# c-KIT D816V, sequence (P10721 26-976 D816V): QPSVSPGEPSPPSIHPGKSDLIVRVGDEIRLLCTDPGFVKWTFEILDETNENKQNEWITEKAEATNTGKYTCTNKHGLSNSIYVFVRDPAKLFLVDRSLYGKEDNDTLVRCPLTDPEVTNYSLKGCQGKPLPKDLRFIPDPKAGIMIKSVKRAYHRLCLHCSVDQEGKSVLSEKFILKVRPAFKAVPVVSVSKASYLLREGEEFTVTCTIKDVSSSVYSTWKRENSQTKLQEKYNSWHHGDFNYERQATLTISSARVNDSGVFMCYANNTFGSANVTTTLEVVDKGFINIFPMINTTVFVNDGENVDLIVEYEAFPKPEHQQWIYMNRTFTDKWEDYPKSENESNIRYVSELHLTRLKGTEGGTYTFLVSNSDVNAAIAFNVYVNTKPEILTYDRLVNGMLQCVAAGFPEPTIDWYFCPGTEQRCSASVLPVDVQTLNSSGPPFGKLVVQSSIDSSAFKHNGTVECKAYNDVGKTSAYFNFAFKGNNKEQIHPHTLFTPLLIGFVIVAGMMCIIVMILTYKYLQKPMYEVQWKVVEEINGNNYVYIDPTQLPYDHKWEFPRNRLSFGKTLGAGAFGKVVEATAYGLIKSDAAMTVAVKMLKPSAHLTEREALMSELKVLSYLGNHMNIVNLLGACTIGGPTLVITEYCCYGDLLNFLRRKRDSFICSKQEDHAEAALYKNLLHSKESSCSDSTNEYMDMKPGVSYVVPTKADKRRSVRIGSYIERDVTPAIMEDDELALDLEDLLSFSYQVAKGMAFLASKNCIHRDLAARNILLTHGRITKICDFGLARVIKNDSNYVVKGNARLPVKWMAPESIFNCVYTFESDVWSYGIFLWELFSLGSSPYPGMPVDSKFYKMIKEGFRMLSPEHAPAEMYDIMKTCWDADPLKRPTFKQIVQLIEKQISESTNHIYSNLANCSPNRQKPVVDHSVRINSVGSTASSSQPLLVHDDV
# T3 sequence (P10721 26-976): as the sequence (P10721 26-976 D816V) above, with V791D counted along it
GI50 [1] [nM],GI50 [2] [nM],GI50 [3] [nM],GI50 [4] [nM],IC50 [5] [nM],GI50 [6] [nM],IC50 [7] [nM],IC50 [8] [nM],IC50 [9] [nM],SMILES
≤ 200,≤ 200,≤ 200,≤ 200,≤ 50,–,–,–,–,"CCN1CCC(COc2cc3ncnc(-c4ccc(NC(=O)Cc5ccc(C(F)(F)F)cc5)cc4)c3cc2OC)CC1 [Example 4, N-(4-(7-((1-ethylpiperidin-4-yl)methoxy)-6-methoxyquinazolin-4-yl)phenyl)-2-(4-(trifluoromethyl)phenyl)acetamide]"
≤ 200,≤ 200,≤ 200,≤ 200,–,–,–,–,–,"CCN1CCCC(COc2cc3ncnc(-c4ccc(NC(=O)Cc5ccc(C(F)(F)F)cc5)cc4)c3cc2OC)C1 (stereo not shown) [Example 18, N-(4-(7-((1-ethylpiperidin-3-yl)methoxy)-6-methoxyquinazolin-4-yl)phenyl)-2-(4-(trifluoromethyl)phenyl)acetamide]"
≤ 200,≤ 200,≤ 200,–,≤ 50,–,–,–,–,"COc1cc2c(-c3ccc(NC(=O)Cc4ccc(C(F)(F)F)cc4)cc3)ncnc2cc1OCCn1cccn1 [Example 30, N-(4-(7-(2-(1H-pyrazol-1-yl)ethoxy)-6-methoxyquinazolin-4-yl)phenyl)-2-(4-(trifluoromethyl)phenyl)acetamide]"
≤ 200,≤ 200,≤ 200,–,≤ 50,–,–,–,–,"COc1cc2c(-c3ccc(NC(=O)Cc4ccc(C(F)(F)F)cc4)cc3)ncnc2cc1OCCCN1C[C@H]2C[C@@H]1CN2C [Example 31, N-(4-(6-methoxy-7-(3-((1R,4R)-5-methyl-2,5-diazabicyclo[2.2.1]heptane-2-yl)propoxy)quinazolin-4-yl)phenyl)-2-(4-(trifluoromethyl)phenyl)acetamide]"
≤ 200,≤ 200,≤ 200,–,≤ 50,–,–,–,–,"CCN1CC[C@@H](COc2cc3ncnc(-c4ccc(NC(=O)Cc5ccc(C(F)(F)F)cc5)cc4)c3cc2OC)C1 [Example 40, (R)-N-(4-(7-((1-ethylpyrrolidin-3-yl)methoxy)-6-methoxyquinazolin-4-yl)phenyl)-2-(4-(trifluoromethyl)phenyl)acetamide]"
≤ 200,≤ 200,≤ 200,–,≤ 50,–,–,–,–,"COCCN1CCC(COc2cc3ncnc(-c4ccc(NC(=O)Cc5ccc(C(F)(F)F)cc5)cc4)c3cc2OC)CC1 [Example 43, N-(4-(6-methoxy-7-((1-(2-methoxyethyl)piperidin-4-yl)methoxy)quinazolin-4-yl)phenyl)-2-(4-(trifluoromethyl)phenyl)acetamide]"
≤ 200,–,–,≤ 200,≤ 50,≤ 200,≤ 50,≤ 50,≤ 50,"COCCOc1cc2ncnc(-c3ccc(NC(=O)Cc4ccc(C(F)(F)F)cc4)cc3)c2cc1OCCOC [Example 57, N-(4-(6,7-bis(2-methoxyethoxy)quinazolin-4-yl)phenyl)-2-(4-(trifluoromethyl)phenyl)acetamide]"
–,–,–,≤ 200,50 to 100,≤ 200,≤ 50,≤ 50,≤ 50,"CCN(CC)CCOc1cc2c(-c3ccc(NC(=O)Cc4ccc(F)cc4)cc3)ncnc2cc1OC [Example 122, N-(4-(6-(2-(diethylamino)ethoxy)-7-methoxyquinazolin-4-yl)phenyl)-2-(4-fluorophenyl)acetamide]"
200 to 500,≤ 200,200 to 500,–,≤ 50,–,–,–,–,"COc1cc2ncnc(-c3ccc(NC(=O)Cc4ccc(C(F)(F)F)cc4)cc3)c2cc1OCCN1CCN(C)CC1 [Example 131, N-(4-(7-methoxy-6-(2-(4-methylpiperazin-1-yl)ethoxy)quinazolin-4-yl)phenyl)-2-(4-(trifluoromethyl)phenyl)acetamide]"
200 to 500,≤ 200,> 500,–,–,–,–,–,–,"COc1cc2ncnc(-c3ccc(NC(=O)Cc4ccc(C(F)(F)F)cc4)cc3)c2cc1OCC1CCCNC1 (stereo not shown) [Example 133, N-(4-(7-methoxy-6-(piperidin-3-ylmethoxy)quinazolin-4-yl)phenyl)-2-(4-(trifluoromethyl)phenyl)acetamide]"
≤ 200,≤ 200,≤ 200,–,–,–,–,–,–,"CCN1CCCC(COc2cc3c(-c4ccc(NC(=O)Cc5ccc(C(F)(F)F)cc5)cc4)ncnc3cc2OC)C1 (stereo not shown) [Example 134, N-(4-(6-((1-ethylpiperidin-3-yl)methoxy)-7-methoxyquinazolin-4-yl)phenyl)-2-(4-(trifluoromethyl)phenyl)acetamide]"
200 to 500,≤ 200,≤ 200,–,–,–,–,–,–,"COc1cc2ncnc(-c3ccc(NC(=O)Cc4ccc(C(F)(F)F)cc4)cc3)c2cc1OC1CNC1 [Example 138, N-(4-(6-(azetidin-3-yloxy)-7-methoxyquinazolin-4-yl)phenyl)-2-(4-(trifluoromethyl)phenyl)acetamide]"
> 500,≤ 200,> 500,≤ 200,≤ 50,≤ 200,–,≤ 50,–,"COc1cc2ncnc(-c3ccc(NC(=O)Cc4ccc(C(F)(F)F)cc4)cc3)c2cc1OC1CCNCC1 [Example 140, N-(4-(7-methoxy-6-(piperidin-4-yloxy)quinazolin-4-yl)phenyl)-2-(4-(trifluoromethyl)phenyl)acetamide]"
200 to 500,≤ 200,≤ 200,–,–,–,–,–,–,"CCN1CC(Oc2cc3c(-c4ccc(NC(=O)Cc5ccc(C(F)(F)F)cc5)cc4)ncnc3cc2OC)C1 [Example 144, N-(4-(6-((1-ethylazetidin-3-yl)oxy)-7-methoxyquinazolin-4-yl)phenyl)-2-(4-(trifluoromethyl)phenyl)acetamide]"
200 to 500,≤ 200,≤ 200,–,–,–,–,–,–,"CCN1CCC(Oc2cc3c(-c4ccc(NC(=O)Cc5ccc(C(F)(F)F)cc5)cc4)ncnc3cc2OC)C1 (stereo not shown) [Example 145, N-(4-(6-((1-ethylpyrrolidin-3-yl)oxy)-7-methoxyquinazolin-4-yl)phenyl)-2-(4-(trifluoromethyl)phenyl)acetamide]"
